# Test results: paper PMC6481137, “Identification of Chinese Herbal Compounds with Potential as JAK3 Inhibitors” (Evidence-based Complementary and Alternative Medicine : eCAM, 2019)
# Target: T1, JAK3 kinase (Homo sapiens, UniProt P52333)
# T1 construct: JAK3 kinase domain (amino acids 781 to 1124)
# Assay: ELISA kinase assay, poly(Glu,Tyr) substrate, […] ATP
# Assay type: biochemical
# T1 sequence (P52333 781-1124): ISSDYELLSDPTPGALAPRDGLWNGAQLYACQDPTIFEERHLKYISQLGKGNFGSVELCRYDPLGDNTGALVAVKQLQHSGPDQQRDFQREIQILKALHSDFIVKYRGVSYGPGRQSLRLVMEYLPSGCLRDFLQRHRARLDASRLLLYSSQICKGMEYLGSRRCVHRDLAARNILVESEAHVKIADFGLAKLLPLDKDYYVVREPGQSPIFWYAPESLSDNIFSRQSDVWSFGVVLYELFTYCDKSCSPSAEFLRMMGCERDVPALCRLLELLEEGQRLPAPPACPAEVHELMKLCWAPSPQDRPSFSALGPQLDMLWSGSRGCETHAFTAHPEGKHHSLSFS
row,SMILES,IC50 [µM]
1,"COc1ccc(-c2oc3c(CC=C(C)C)c(O)cc(O)c3c(=O)c2O)cc1 [ICA, Icaritin]",~20
2,"O=C1Nc2ccccc2/C1=C1/Nc2ccccc2C1=O [IND, Indirubin]",~50
3,"C[C@H]1COC2=C1C(=O)C(=O)c1c2ccc2c1CCCC2(C)C [CRY, Cryptotanshinone]",~25
